# In patent US20220402883A1, “COMPOUNDS AND METHODS FOR MODULATING RNA FUNCTION” (Arrakis Therapeutics, Inc., priority 2016, published 2022):
# “Also recorded” adds a separate entry of the source.
# Experiments:
# [1] = system: RNA3WJ_1.0.0_5IB_3FAM (cis 3WJ with one unpaired nucleotide); assay: Thermal shift binding assay; conditions: 1 μM RNA, 8 μM compound
# Text: (§1) Purpose: Test binding of compounds for RNA three way junction (for example, a construct of 38 nt). Thermal shift assay based on established fluorescence quenching assay utilizing FAM as fluorescence tag and Iowa Black as quencher. Tags were attached at the 3′ and 5′ end, respectively. Stable formation of 3WJ upon compound binding would lead to quenching of the FAM fluorescence due to close proximity of the Iowa Black tag. Thermal unfolding leads to increase of fluorescence emission. Assay readout: FAM (465-510 nm) Thermal Shift.
# (§2) Assay sample buffer used: 10 mM CacoK pH 7.2, 30 mM NaCl. Buffer preparation in Dnase/Rnase Free distilled water (Gibco Life Technologies).
# (§3) Dilute the RNA 1:10 (final 10 μM) in Assay Buffer.
# (§4) Heat up the diluted RNA up to 90° C. for 5 min (sealed Eppendorf Tube).
# (§5) Cool down the RNA probe slowly to RT.
# (§6) Dilute the compounds to 800 μM in DMSO (Assay: 8 μM).
# (§7) Final concentrations in the sample: 1 μM RNA, 8 μM compound, 1% DMSO
# (§8) Pipet 20 μL Sample Solution into Roche, Light Cycler480 Multiwell Plate96, white, REF 04729692001.
# (§9) Measure the 96 plate with the LightCycler480 (Channel: 480/510 nm; Temperature: 41-91° C.).
# (§10) Analyse measurement-data with the MeltingCurveGenotyping Mode.
# (§11) Settings: Acquisition mode: continuous; Ramp rate: 0.1° C./sec; Acquisition: 6° C.
# (§12) Curves are fitted with raw and normalized data.
# (§13) Melting curves analysis show melting temperature (Tm) of ˜51° C. Range of RNA concentrations was tested and assay window was determined (conc. range of 0.5-1 μM yields best results). The choice of buffer also affected the Tm. RNA constructs were tested under different buffer conditions (especially in presence of salt) in the thermal shift assay. […] CacoK with 30 mM salt at 1 μM RNA conc. was used to assess compound effects on 3WJ stability. […] These conditions were used for screening test compounds.
# (§14) Compounds Ark0000013 and Ark0000014 were also tested in the thermal shift assay against three RNA 3WJ constructs, A) RNA3WJ_1.0.0_5IB_3FAM (cis 3WJ with one unpaired nucleotide); B) Split3WJ.1_up_5IB+Split3WJ.1_down_3FAM (trans 3WJ as 1:1 mix); and C) Split3WJ.2_up_5IB+Split3WJ.2_down_3FAM (trans 3WJ as 1:1 mix).
# [2] = system: Split3WJ.1_up_5IB+Split3WJ.1_down_3FAM (trans 3WJ as 1:1 mix; Split3WJ_1); assay: Thermal shift binding assay; conditions: 1 μM RNA, 8 μM compound, 10 mM CacoK pH 7.2, 30 mM NaCl
# Text: as §1, §2, §3, §4, §5, §6, §7, §8, §9, §10, §11, §12, §13, §14
# [3] = system: Split3WJ.2_up_5IB+Split3WJ.2_down_3FAM (trans 3WJ as 1:1 mix; Split3WJ_2); assay: Thermal shift binding assay; conditions: 1 μM RNA, 8 μM compound, 10 mM CacoK pH 7.2, 30 mM NaCl
# Text: as §1, §2, §3, §4, §5, §6, §7, §8, §9, §10, §11, §12, §13, §14
# [4] = system: RNA3WJ_0.0.0_5B_3FAM (3WJ RNA); assay: Ligand observed NMR binding assay (Watergate, WaterLOGSY, STD); conditions: 10 μM RNA, +/− 200 Ark000013
# Description: Purpose: Test direct binding of compounds for RNA three way junction (3WJ). This ligand observed NMR assay is used to test direct binding of compounds to an RNA target, for example a 38 nt synthetic RNA 3WJ and others as described below. Ligand observed assay was used for hit validation studies of single compounds. Established experiments were eventually used to perform group epitope mapping, described below.
# Sample buffer: 10 mM Cacodylate, pH 7.1; 0.68 g [MW: 137.99 g/mol]; fill up to 500 ml with Millipore H2O.
# Compound Stocks: Tool compounds provided as dry powder were prepared as 50 mM stock solution in 100% d6-DMSO. Test compounds provided as dry powder were prepared as 50 mM stock solution in 100% d6-DMSO. Stock solutions of 50 mM concentration in d6-DMSO were stored at 4° C.
# NMR spectrometer: Bruker AVANCE600 spectrometer operating at 600.0 MHz for ^1H. 5-mm z-gradient TXI Cryoprobe.
# Dried RNA pellet is solubilized in sample buffer 10 mM Cacodylate pH 7.1. […]
# Spectra were analyzed for direct binding signals of the compounds. […]
# ARK0000013 was also tested in the NMR binding assay. Test Sample: 10 μM RNA3WJ_0.0.0_5B_3FAM+/−200 Ark000013. ^1H 1D Watergate & WaterLOGSY spectra recorded of Ark000013 were used as a reference (Note: aromatic signals observed between 7.4-7.9 ppm and due to symmetry of the center triptycene scaffold all 9 protons are magnetically equivalent).
structure (smiles),measurement,setting,value
"CN(CCCN)CCCNC(=O)c1ccc2c(c1)C1c3cc(C(=O)NCCCN(C)CCCN)ccc3C2c2ccc(C(=O)NCCCN(C)CCCN)cc21 [Ark000013, N^2,N^7,N^15-tris(3-((3-aminopropyl)(methyl)amino)propyl)-9,10-dihydro-9,10-[1,2]benzenoanthracene-2,7,15-tricarboxamide]",effect in the melting curves (in words),[1],significantly lower fluorescence signal; also recorded: no proper melting curve
same,Melting temp + cmpd,"[1]; 10 mM CacoK pH 7.2, 30 mM NaCl",87.0 °C
same,Temp. Shift,"[1]; 10 mM CacoK pH 7.2, 30 mM NaCl",21.4 °C
same,Melting temp + cmpd,[2],58.2 °C
same,Temp. Shift,[2],~21 °C
same,Temp. Shift,[2]; listed as Ark0000013,20.4 °C
same,Melting temp + cmpd,[3],56.9 °C
same,Temp. Shift,[3],~13 °C
same,Temp. Shift,[3]; listed as Ark0000013,12.2 °C
same,STD signals,[4],small signals
same,WaterLOGSY signals in the presence of RNA,[4],clear reduction of negative sign signals
